Our source for the K inact values is ChEMBL document CHEMBL1148244, “Inactivation of gamma-aminobutyric acid aminotransferase by (S)-4-amino-4,5-dihydro-2-furancarboxylic acid does not proceed by the expected aromatization mechanism” (Bioorg Med Chem Lett, 2004).

The experiment addresses 4-aminobutyrate aminotransferase (Sus scrofa) (UniProt P80147). Put plainly: Kinact for pyridoxal 5'-phosphate (PLP)-dependent Gamma-amino-N-butyrate transaminase at pH 7.4.

4-aminobutyrate aminotransferase (Sus scrofa), sequence (P80147 whole entry, looked up): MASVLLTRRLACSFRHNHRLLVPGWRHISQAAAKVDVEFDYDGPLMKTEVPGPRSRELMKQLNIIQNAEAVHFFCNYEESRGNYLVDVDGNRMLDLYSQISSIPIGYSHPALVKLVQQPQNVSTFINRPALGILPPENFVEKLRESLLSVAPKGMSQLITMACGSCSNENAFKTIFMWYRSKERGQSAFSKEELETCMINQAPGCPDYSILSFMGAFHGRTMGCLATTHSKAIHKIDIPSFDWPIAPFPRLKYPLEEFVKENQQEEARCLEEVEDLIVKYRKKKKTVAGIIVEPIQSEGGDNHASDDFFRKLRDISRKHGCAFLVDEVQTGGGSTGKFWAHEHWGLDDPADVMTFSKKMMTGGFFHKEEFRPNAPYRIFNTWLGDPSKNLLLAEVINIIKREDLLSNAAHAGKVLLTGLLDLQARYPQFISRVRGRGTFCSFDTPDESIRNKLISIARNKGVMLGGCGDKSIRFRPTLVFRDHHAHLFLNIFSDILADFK

In the case of `NC1C=C(C(=O)O)OC1` (stereo unspecified), the K inact came to 2.4 min⁻¹.
